Measured values reported in paper PMC2409523, “Hormonal impact of the 17α-hydroxylase/C17,20-lyase inhibitor abiraterone acetate (CB7630) in patients with prostate cancer” (British Journal of Cancer, 2004).
Values joined by “and” are separate entries in the source; they are usually repeats but may differ in a detail not shown here. Equal entries are not always repeated.

Key:
testosterone synthesis [1] = assay: Study A: single dose study in castrate males with prostate cancer, serum hormone levels; type: in vivo, human
Experimental: Significant suppression was defined as either testosterone <0.14 nmol l^−1 in individual patients with a pretreatment value of <0.6 nmol l^−1 or a ⩾75% reduction in individual patients with a pretreatment value of ⩾0.6 nmol l^−1.
This was a single-centre, open-label, phase one, single-dose study in which sequential cohorts of three medically or surgically castrate patients were to receive treatment at five dose levels: starting at 10 mg and increasing to 30, 100, 200 and 500 mg. […] A confirmatory testosterone level of between 0.2 and 2.0 nmol l^−1 was also required.
(§1) Serum samples for endocrine analysis were obtained at 0, 2, 4, 8 and 24 h on a single day in the week prior to treatment commencement and then on Days 1, 2, 3, 4 and 7. As the duration of testosterone suppression was longer than originally anticipated, additional samples were added on Days 10, 14 and 21. The serum samples were analysed for testosterone, cortisol, 17 α-hydroxyprogesterone (17HP), androstenedione, LH and follicle-stimulating hormone (FSH) using commercially available kits. However, the DPC Coat-a-count kit for testosterone was sensitised using a larger volume of sample/standard and extension of the standard curve. […] All endocrine analyses were conducted by radioimmunoassay except for LH and FSH, which were by enzyme immunoassay.

testosterone synthesis [2] = assay: Study B: single dose study in noncastrate males with prostate cancer, serum hormone levels; type: in vivo, human
Experimental: This was a single dose study in noncastrate males (testosterone level ⩾9.0 nmol l^−1) to determine the dose of abiraterone acetate that was sufficient to cause suppression of testosterone synthesis to castrate levels (⩽2.0 nmol l^−1).
This was a single-centre, open-label, phase one, single-dose study in which sequential cohorts of three noncastrate patients were to be treated at four dose levels: 200, 500, 650 and 800 mg. The starting dose of 200 mg was chosen when the results of study A were available.
All patients were required to have a normal testosterone level prior to study entry (i.e. ⩾9.0 nmol l^−1) as well as normal gonadotrophin levels (Luteinising Hormone (LH) ⩽13 IU l^−1).
as §1

[3] = Pharmacokinetics in patient plasma (LC-MS); type: in vivo, human; conditions: for Mean AUC: across all three studies
Experimental: Sample extracts were analysed by a fully validated liquid chromatography mass spectrometry method. The instrument consisted of Wisp Model 717 autosampler including a Model 600MS system controller with a quaternary U6K LC pump. A Finnigan MAT TSQ 700 triple quadrupole mass spectrometer was used as the detection system, together with Finnigan MAT ICIS and ICL software for data capture and processing (ThermoQuest Ltd, San Jose, CA, USA). The separation of analytes was performed on a Supelcosil LC-ABZ (5 μm, 250 × 4.6 mm) analytical column protected by a guard column (Supelco, Bellefonte, PA, USA). The mobile phase consisted of 570 ml of 20 mM ammonium acetate solution, 100 ml tetrahydrofuran and 1330 ml acetonitrile and was delivered at a flow rate of 1 ml min^−1 throughout the system. Column eluant was subjected to electrospray ionisation and monitored by selected ion monitoring (SIM) of protonated pseudo-molecular ions of authentic standards of abiraterone acetate and abiraterone, and GP488 (an analogue of abiraterone used as internal standard). For SIM, the scan width was 0.25 and the total scan time was 2.99 s. Also, heated capillary temperature=250°C, spray voltage=4.5 kV, collision offset=−49.9 V and electron multiplier voltage=1200 eV. Samples were extracted as follows: 50 μl of acetonitrile and 40 μl of 50 μM GP488 internal standard were added to 500 μl of patient plasma. […] The dried residue was reconstituted by vortexing in 150 μl of acetonitrile and transferred into autosampler vials. Aliquots (100 μl) of these samples were injected onto the LC column. […] A comprehensive PK profile (Cmax, Tmax, T1/2α T1/2 and Kabs) was determined for each patient. Pharmacokinetic parameters were evaluated using WinNonLin Software® and were conducted at The Institute of Cancer Research (Sutton). Blood was sampled for analysis of abiraterone concentration prior to drug administration and at the following times on Day 1: 30 min, 1, 2, 4, 6, 8 and 12 h. In the multidose study, samples were also drawn prior to treatment on Days 2, 3, 4, 7, 8, 9, 10, 11 and 14 with additional samples on Days 21 and 28. Samples (7 ml) were collected into vacutainer tubes (BD, Rutherford, NJ, USA) containing EDTA and immediately centrifuged to separate the plasma. At least 2 ml of plasma was transferred into polypropylene tubes (NUNC) and frozen at –20° until analysis.

[4] = target: 17α-hydroxylase/C17,20-lyase; set-up: method as in Barrie et al, 1997; Potter et al, 1995; conditions: inhibition of the 17α-hydroxylase/C17,20-lyase enzyme; ref Barrie et al, 1997; Potter et al, 1995; read-out: Kiapp; cited from earlier work
testosterone synthesis [5] = assay: Study C: multiple dose study (Days 1–12) in noncastrate males with prostate cancer, serum hormone levels; type: in vivo, human
Experimental: If this level of suppression was achieved, then it was planned to escalate the doses still higher to establish whether further suppression of testosterone was possible. […] This was a three-centre, open-label, phase one, multidose study in which sequential cohorts of three noncastrate patients were to receive treatment with abiraterone daily for 12 days. […] The starting dose of 500 mg was based upon the data from the single-dose studies. It was planned that a dose level would be expanded to six patients if any patient experienced toxicity ⩾ Grade III or if there was a significant suppression of serum cortisol in one patient (defined as per Study B above). All patients were followed for 28 days for any sign of toxicity. […] The schedule sampling differed slightly with samples removed at 0930 and 1730 on the day of treatment and thereafter in the morning on Days 2, 3, 4, 7, 8, 9, 10, 11, 14, 21 and 28. In Study C, a short […] test was also performed prior to therapy and again around Day 11.

cortisol synthesis = assay: Short Synacthen test in Study C; type: in vivo, human
Experimental: The schedule sampling differed slightly with samples removed at 0930 and 1730 on the day of treatment and thereafter in the morning on Days 2, 3, 4, 7, 8, 9, 10, 11, 14, 21 and 28. In Study C, a short Synacthen test was also performed prior to therapy and again around Day 11.

[6] = Safety and tolerability in the three phase one trials; type: in vivo, human
Experimental: Prior to the first dose of therapy a complete history, physical examination and assessment of performance status was performed on all patients. Full-blood count, electrolytes and creatinine, liver function, urinanalysis, electrocardiograph and chest X-ray were obtained from all patients. The ECG was repeated 6 h after dosing. On the day of therapy heart rate, blood pressure and temperature were recorded every 4 h and then daily at the time of blood sampling. Thereafter, full-blood count, electrolytes, creatinine and liver function were re-evaluated on Days 2 and 7. Toxicity was recorded using the NCI-CTG Expanded Common Toxicity Criteria V1.

[7] = set-up: method as in Barrie et al, 1994; Dowsett et al, 1988; conditions: rodent model, intraperitoneal administration; ref Barrie et al, 1994; Dowsett et al, 1988; cited from earlier work
17α hydroxylation = tested on: 17α hydroxylation; set-up: method as in Barrie et al, 1994; Dowsett et al, 1988; conditions: preclinical studies, correlative evidence of inhibition of 17α hydroxylation; ref Barrie et al, 1994; Dowsett et al, 1988; cited from earlier work
[8] = single oral dose 500 mg, noncastrate patients
[9] = 500 mg daily Days 1–12, noncastrate patients

SMILES: C[C@]12CC[C@H](O)CC1=CC[C@@H]1[C@@H]2CC[C@]2(C)C(c3cccnc3)=CC[C@@H]12 [abiraterone, 17-(3-pyridyl)androsta-5,16-dien-3β-ol]
- serum cortisol level (testosterone synthesis [1]; one patient at 500 mg, Day 1, baseline 409 nmol l^−1, felt inconsistent with suppression due to drug): 81 nmol/L
- reduction in testosterone (testosterone synthesis [1]; single oral dose 200 mg, one castrate patient, within the first 24 h): 75%
- levels of 17-hydroxyprogesterone (testosterone synthesis [1]; single oral dose 500 mg, castrate males): no corresponding reduction
- mean androstenedione levels (testosterone synthesis [1]; single oral dose 500 mg, castrate males, around Day 2): reduction in mean androstenedione levels
- patients with reduction in testosterone to the target level (testosterone synthesis [1]; single oral dose 500 mg, first cohort of three castrate patients, target <0.14 nmol l^−1 or ⩾75% reduction): all three patients
- patients with target testosterone suppression (testosterone synthesis [1]; single oral dose 500 mg, three additional castrate patients): one of these patients
- days over which testosterone suppression was sustained (testosterone synthesis [1]; single oral dose 500 mg, two of the three castrate patients, post-therapy): 2 to 5 days
- effect on testosterone (testosterone synthesis [1]; single oral dose 10, 30 and 100 mg, castrate males): no consistent effect
- testosterone suppression (testosterone synthesis [2]; single oral dose 200 mg, first noncastrate patient): No testosterone suppression
- reduction in testosterone level from baseline (testosterone synthesis [2]; single oral dose 500 mg, all three noncastrate patients): more than 50%
- recovery of LH to pretreatment levels (testosterone synthesis [2]; [8]): ≤ 10 days
- recovery of testosterone to pretreatment levels after nadir (testosterone synthesis [2]; [8]): 6 to 9 days
- time of testosterone nadir (testosterone synthesis [2]; [8]): second day after therapy
- rise in LH levels (testosterone synthesis [2]; single oral dose 500 mg, noncastrate patients, maximal on Day 3): 47–75%
- plasma levels of abiraterone ([3]; all doses greater than or equal to 200 mg): Detectable levels
- Mean AUC ([3]; dose 200 mg): 0.31 µM·h
- Mean AUC ([3]; dose 500 mg): 1.22 µM·h
- Mean AUC ([3]; dose 800 mg): 5.6 µM·h
- Ki [4]: 0.5 nM

SMILES: CC(=O)O[C@H]1CC[C@@]2(C)C(=CC[C@@H]3[C@@H]2CC[C@]2(C)C(c4cccnc4)=CC[C@@H]32)C1 [abiraterone acetate]
- patients with suppression of testosterone levels to <0.14 nmol l^−1 (testosterone synthesis [1]; single dose of 500 mg, castrate males): four out of six
- LH levels (testosterone synthesis [2]; single oral dose 200 mg, noncastrate): did not alter
- level of testosterone relative to baseline (testosterone synthesis [2]; single oral dose 500 mg, noncastrate patients, Day 3, each case): less than 50%
- change in cortisol level (testosterone synthesis [2]; single oral dose, noncastrate patients): No change
- testosterone level reached (testosterone synthesis [5]; 500 mg daily Days 1–12, all three noncastrate patients): ≤ 2.0 nmol/L
- duration of substantial testosterone suppression (testosterone synthesis [5]; [9]): up to 9 days
- serum cortisol levels (testosterone synthesis [5]; [9]): remained within normal limits
- time of maximal testosterone suppression (testosterone synthesis [5]; [9]): 1 to 3 days
- target testosterone level of ⩽0.7 nmol l^−1 (testosterone synthesis [5]; 500 mg daily Days 1–12, three noncastrate patients): did not reach the target level
- day on which target testosterone suppression (⩽0.7 nmol l^−1) was obtained (testosterone synthesis [5]; 800 mg daily Days 1–12, first patient): 1 days
- testosterone level (testosterone synthesis [5]; 800 mg daily, final patient, by Day 2): 1.7 nmol/L
- rise in LH (testosterone synthesis [5]; 800 mg daily, final patient, from Day 3): two-fold rise
- testosterone level (testosterone synthesis [5]; 800 mg daily, final patient, from Day 4): > 2.0 nmol/L
- testosterone levels for the duration of treatment (testosterone synthesis [5]; 800 mg daily, first patient): ≤ 2.0 nmol/L
- increase in LH (testosterone synthesis [5]; 800 mg daily, first patient, from Day 3): three-fold increase
- duration of target testosterone suppression (testosterone synthesis [5]; 800 mg daily, first patient, then reversed with rising LH): 3 days
- day on which target testosterone suppression (⩽0.7 nmol l^−1) was reached (testosterone synthesis [5]; 800 mg daily, second patient): 4 days
- testosterone level (testosterone synthesis [5]; 800 mg daily, second patient, Day 7, otherwise below target level): 0.77 nmol/L
- increase of Luteinising Hormone (LH) levels (testosterone synthesis [5]; 800 mg days 1–12, two out of three patients, overcame suppression within 3 days): two- to three-fold
- effect on FSH levels (testosterone synthesis [5]; 800 mg, repeat dose): no effect
- fall of evening cortisol from baseline evening cortisol (testosterone synthesis [5]; multidose study, evening of Day 1, three patients): 60% and 71% and 69%
- dose required to maintain testosterone suppression to target levels (testosterone synthesis [5]; repeat dose studies, noncastrate males): at least 800 mg
- response to Synacthen (cortisol synthesis; 500 mg daily, all three patients, by Day 11): abnormal response
- mean change in cortisol in response to Synacthen (cortisol synthesis; 500 mg daily, by Day 11, baseline 294.3 nmol l^−1): 42 nmol/L
- mean change in cortisol in response to Synacthen (percent) (cortisol synthesis; 500 mg daily, by Day 11, baseline +77%): +10%
- cortisol response to the short Synacthen test (cortisol synthesis; 800 mg daily, all three patients, Day 11): abnormal
- mean change in cortisol levels in response to Synacthen (cortisol synthesis; 800 mg daily, by Day 11, baseline 385 nmol l^−1): 65.3 nmol/L
- mean change in cortisol levels in response to Synacthen (percent) (cortisol synthesis; 800 mg daily, by Day 11, baseline 120%): 23%
- saturation of drug absorption ([3]; at the dose levels studied, all three studies combined): no evidence of saturation of drug absorption
- grade three or four toxic events ([6]; all three trials): no grade three or four toxic events
- resting heart rate or blood pressure ([6]; all three trials): No alteration
- serious adverse events ([6]; all three trials): no serious adverse events attributable to treatment
- tolerability ([6]; all three trials): very well tolerated
- haematologic or biochemical effects ([6]; any dose level or schedule evaluated): No haematologic or biochemical effects
- systemic effects reported by individual patients ([6]; no relation to dose or schedule apparent): Headache, hot flushes, a mild increase in abdominal and testicular pain, and a transient depression in mood (all grade II)
- deacetylation [7]: rapid deacetylation
- weight of the ventral prostate (17α hydroxylation): reduced weight of the ventral prostate
